Columns and labels:
Type in all cases: cell-based, murine
iNOS = assay: DSV-induced iNOS expression, Western blot in RAW cells; settings: 1 h before DSV 4 h, DSV alone 23.54±5.39
Experimental: (§1) RAW 264.7 murine macrophage-like cells were grown in DMEM+10% FBS without any use of antibiotics or antimycotics. Cells were grown at 37° C. in a humidified incubator with 5% CO2. Prior to the day of infection, 8×10^5 cells were plated in a six-well plate and infected with DSV at multiplicity of infection 20 (MOI 20) for various times. For drug treatments, cells were incubated with LY294002 at 10 μM or 50 μM for one hour followed by DSV infection for 30 minutes or four hours. For TL2-C29 treatment, cells were incubated with the inhibitor at 200 μM for three hours followed by infection with DSV for four hours.
(§2) Cells were lysed in Lysis buffer containing protease and phosphatase inhibitors (Thermo Fisher Scientific, Inc., Waltham, MA) for 20 minutes at 4° C. Lysates were centrifuged at 12,000 rpm for five mins at 4° C. and supernatants were collected. Protein concentration in the supernatants was determined with Bradford reagent (Bio-Rad Laboratories, Inc., Hercules, CA). 50 μg of protein samples were run on SDS-PAGE (4-20% tris-glycine) and transferred to nitrocellulose membranes. Membranes were blocked in 5% milk in PBS-T (0.1% Tween 20) for 30 minutes followed by overnight incubation in primary antibodies in cold room. All antibodies except iNOS were purchased from Cell Signaling Technology (Danvers, MA): Actin (4970), p-AktS473(4060), p-Akt T308(13038), Akt (9272), p-P70S6K (9205), P70S6K (2708, TNF-α (19948). iNOS antibody was purchased from Abcam (Cambridge United Kingdom). Antibodies were diluted as recommended by the manufacturer. The following day, blots were washed with PBS-T and incubated with secondary antibodies (Cell Signaling Technology, Danvers, MA) at room temperature for one hour (dilution of 1:2000) and developed using enhanced chemiluminescence HRP signal (Thermo Fisher Scientific, Inc., Waltham, MA).
(§3) All graphs were generated using PRISM 9.4.1 GraphPad Software Inc., San Diego, CA). Data is plotted as Mean±SEM relative to control. Each experiment was conducted at least three independent times. […]

p-p70S6K = assay: DSV-induced p-P70S6K, Western blot in RAW cells; settings: 1 h before DSV 4 h, DSV alone 1.96±0.20
Experimental: as §1
(§4) Cells were lysed in Lysis buffer containing protease and phosphatase inhibitors (Thermo Fisher Scientific, Inc., Waltham, MA) for 20 minutes at 4° C. Lysates were centrifuged at 12,000 rpm for five mins at 4° C. and supernatants were collected. Protein concentration in the supernatants was determined with Bradford reagent (Bio-Rad Laboratories, Inc., Hercules, CA). 50 μg of protein samples were run on SDS-PAGE (4-20% tris-glycine) and transferred to nitrocellulose membranes. Membranes were blocked in 5% milk in PBS-T (0.1% Tween 20) for 30 minutes followed by overnight incubation in primary antibodies in cold room. […]

p-p65 NF-κB = assay: DSV-induced phospho-p65 NF-κB, Western blot in RAW cells; settings: 50 μM pre-treatment, DSV 30 minutes; DSV alone 3.54±0.59
Experimental: FIG. 13. LY294002 inhibits DSV-induced activation of PI3K/Akt/TNF pathway. (A) Quantification of secreted TNF-α. (B) Cells were treated with LY at either 10 μM or 50 μM for one hour before infection with DSV for four hours. Protein lysate was analyzed for iNOS expression. (C) Cells were pretreated with or without LY 50 μM followed by infection with DSV for 30 minutes and protein samples were analyzed for p-p65 NF-κB and total NF-κB. (D) Blots were quantified by analyzing the ratio of p-NF-κB/NF-κB. Values were normalized and compared to control. Data represents Mean±SEM from at least three independent experiments. Values were normalized to control. One-way ANOVA was used to determine the statistical significance. Values were compared to DSV, with a post-hoc Dunnett's test. *p<0.05, **p<0.01, ***p<0.001.
RAW 264.7 murine macrophage-like cells were grown in DMEM+10% FBS without any use of antibiotics or antimycotics. Cells were grown at 37° C. in a humidified incubator with 5% CO2. […]
Cells were lysed in Lysis buffer containing protease and phosphatase inhibitors (Thermo Fisher Scientific, Inc., Waltham, MA) for 20 minutes at 4° C. […] Protein concentration in the supernatants was determined with Bradford reagent (Bio-Rad Laboratories, Inc., Hercules, CA). […]

TNF-α = assay: DSV-induced cellular TNF-α expression, Western blot in RAW cells; settings: 1 h before DSV 4 h, DSV alone 37.01±4.28
Experimental: as §1, §2, §3

secreted TNF-α = assay: DSV-induced secreted TNF-α, Western blot of RAW cell culture supernatant; settings: 1 h before DSV 4 h, DSV alone 18.73±6.21
Experimental: FIG. 12. LY294002 inhibits DSV-induced activation of PI3K/Akt/TNF pathway. (A) RAW cells were treated with LY at either 10 μM or 50 μM for one hour before infection with DSV for four hours. Cells were lysed and protein lysate was prepared. Fifty μg of protein lysate was separated on SDS-PAGE and analyzed for p-Akt, Akt, TNF, iNOS, p-p70S6K, and total p70S6K by Western blotting. Actin was used as a loading control. (B) Quantification of p-Akt-Akt Western blot. (C) Quantification of p-P70/P70 Western blot. (D) Quantification of TNF-α/actin Western blot. (E) Post-infection, RAW cell culture supernatant was collected and proteins were precipitated using ethanol precipitation. Proteins were resuspended in PBS and 50 μg of proteins were loaded on SDS-PAGE and secreted TNF-α was detected using TNF-α antibody. Actin was used as a loading control.
as §1, §4

p-Akt/Akt = assay: DSV-induced Akt phosphorylation, Western blot in RAW cells; settings: 1 h before DSV 4 h, DSV alone 4.88±1.31
Experimental: as §1, §2, §3

O=c1cc(N2CCOCC2)oc2c(-c3ccccc3)cccc12 [LY294002]
iNOS expression, normalized to control (iNOS; 10 μM): 5.45±0.17 | iNOS expression, normalized to control (iNOS; 50 μM): 2.28±0.58 | p-P70/P70, normalized to control (p-p70S6K; 10 μM): 0.081±0.026 | p-P70/P70, normalized to control (p-p70S6K; 50 μM): 0.088±0.029 | p-NF-κB/NF-κB (p-p65), normalized to control (p-p65 NF-κB): 1.91±0.54 | cellular TNF-α/actin, normalized to control (TNF-α; 10 μM): 13.42±2.13 | cellular TNF-α/actin, normalized to control (TNF-α; 50 μM): 6.044±2.139 | secreted TNF-α, normalized to control (secreted TNF-α; 10 μM): 1.45±0.24 | secreted TNF-α, normalized to control (secreted TNF-α; 50 μM): 1.34±0.57 | p-Akt/Akt, normalized to control (p-Akt/Akt; 10 μM): 0.52±0.11 | p-Akt/Akt, normalized to control (p-Akt/Akt; 50 μM): 0.40±0.09
